Reference: PubChem BioAssay AID489023 (Sanford-Burnham Center for Chemical Genomics, 2010)
pIC50: −log10 of the molar value. Calls of active or inactive are those of the source. The rule behind the calls is not given here.

The compounds below were run on 697B cells, BCR-induced NF-kB luciferase reporter luminescence (assay: inhibitors of BCR-induced NF-kB activation, dose response, 697B cells, luciferase luminescence (AID 489023)).

Row | SMILES | IC50 | pIC50
1 | C=C(C)[C@@H]1CCC2(C(=O)O)CC[C@]3(C)[C@H](CC[C@@H]4[C@@]5(C)CCC(=O)C(C)(C)[C@@H]5CC[C@]43C)[C@@H]12 (stereo partly drawn) | 71.6 µM (inactive) | 
2 | O=S(=O)(c1cnc(Cl)c(Cl)c1)N1CCCc2ccccc21 | 33.8 µM (inactive) | 
3 | N=c1ccn2c(n1)O[C@H]1[C@H](O)[C@@H](CO)O[C@H]12 |  | > 6.80
4 | O=C(CCCN1C(=O)S/C(=C\C=C\c2ccccc2)C1=O)Nc1ccc(O)cc1 |  | 5.52
5 | CCN(CC(=O)Nc1c(F)cccc1F)C(=O)C1(c2ccccc2)CC1 |  | 4.84
6 | COc1ccc(-c2noc(N3CCC(C(=O)Nc4ccc(F)cc4F)CC3)n2)cc1 | > 80 µM (inactive) | 
7 | CCOc1ccc(-c2nc(CSCC(=O)NCc3ccco3)c(C)o2)cc1 |  | 6.49
8 | CC(C)OCCCNC(=O)c1c(N)n(/N=C/c2ccccn2)c2nc3ccccc3nc12 | > 80 µM (inactive) | 
9 | COc1cc(-c2cc(=O)c3c(O)c(OC)c(OC)c(OC)c3o2)cc(OC)c1OC | > 80 µM (inactive) | 
10 | COc1ccc(-c2ccc(C(C)=O)cc2)cc1[C@H]1[C@H]2C=CC[C@@H](C)[C@@H]2C(=O)N1Cc1ccccc1 | > 80 µM (inactive) | 
11 | CCOc1ccc(/C=C2\SC(=S)N(CCC(=O)Nc3cccc(C(=O)O)c3)C2=O)cc1 |  | 5.05
12 | Cc1c(CCC(=O)N2CCC(C(=O)O)CC2)c(=O)oc2cc3oc4c(c3cc12)CCCC4 |  | 4.85
13 | N=c1c2c(n(Cc3ccc(Cl)cc3Cl)c3c1CCC3)CCCC2 | 40.3 µM (inactive) | 
14 | O=C(CCCN1C(=O)S/C(=C\c2ccccc2)C1=O)NNC(=O)c1ccccc1O |  | 5.79
15 | N=c1ccn(Cc2ccccc2Cl)cc1 | > 80 µM (inactive) | 
16 | COc1ccc(C(=O)Nc2nnc(Cc3cccs3)s2)cc1OC | > 80 µM (inactive) | 
17 | COc1ccc(N(CC(=O)N2CCN(c3ccc(Cl)cc3)CC2)S(=O)(=O)c2c(C)n[nH]c2C)cc1 | > 80 µM (inactive) | 
18 | CNC(=O)CSc1nc2nn(-c3ccccc3)c(=O)c-2c2n1CCCCC2 | 76.9 µM (inactive) | 
19 | Cc1ccc(-c2nc(C(=O)NCC3CCCO3)cc3c2[nH]c2ccccc23)cc1 (stereo not drawn) |  | 4.89
20 | CCOc1ccc(S(=O)(=O)NCc2ccncc2)cc1NC(=O)c1ccccc1 | > 80 µM (inactive) | 
21 | O=c1cccc2c1c1cc[nH]c3ccc(=O)n2c31 |  | 5.68
22 | Cc1c(CCC(=O)NCCCn2ccnc2)c(=O)oc2c(C)c3oc4c(c3cc12)CCCC4 | 30.4 µM (inactive) | 
23 | O=C(CCCN1C(=O)/C(=C/c2ccccc2Cl)SC1=S)NNC(=O)c1ccccc1 |  | 4.90
24 | CCOc1cc(/C=N\Nc2nc(Nc3ccccc3)nc(N3CCOCC3)n2)ccc1OC(=O)c1ccco1 |  | 5.90

Row | SMILES | IC50 | pIC50
25 | Cc1ccc(-c2nn3c(C)nnc3c3ccccc23)cc1S(=O)(=O)NC(C)(C)CO | 29.6 µM (inactive) | 
26 | CC(C)(C)C(=O)/C(=C/c1ccncc1)n1cncn1 |  | 5.50
27 | CSC1CCCCC1(O)CSc1nc2c(cc1C#N)CCCC2 (stereo not drawn) | > 80 µM (inactive) | 
28 | COc1ccc2nc(C)cc(Sc3nc4ccccc4s3)c2c1 |  | 5.74
29 | CCCNC(=O)CSCc1nc(-c2ccc(SC)cc2)oc1C | 31.6 µM (inactive) | 
30 | COc1ccc(NC(=O)c2cc3c(Cl)nc4ccccc4c3s2)cc1OC | 60.3 µM (inactive) | 
31 | Cc1c(NC(=O)/C=C/c2cn(-c3ccccc3)nc2-c2ccccc2)c(=O)n(-c2ccccc2)n1C | > 80 µM (inactive) | 
32 | CCn1c(=O)c2cc(C(=O)NCc3cccs3)sc2c2ccccc21 | > 80 µM (inactive) | 
33 | CN(C)S(=O)(=O)c1ccc(NC(=O)N2CCN(c3ccccc3)CC2)cc1 | > 80 µM (inactive) | 
34 | COc1cc2c3c(c1)c(N=NC(N)=S)c(O)n3C(C)(C)C=C2C | > 80 µM (inactive) | 
35 | C[C@H]1CCC/C=C/[C@@H]2C[C@H](O)C[C@H]2[C@H](O)/C=C/C(=O)O1 | > 80 µM (inactive) | 
36 | Cn1nc(-c2ccc(Cl)cc2)c2cc(C(=O)N3CCCC3)sc21 | > 80 µM (inactive) | 
37 | CC(C)[C@H](N)c1nnc(SCC(=O)c2ccc(Cl)cc2)o1 | > 80 µM (inactive) | 
38 | COc1ccc(OC)c(NC(=O)c2[nH]c(C)c(C(C)=O)c2C)c1 | > 80 µM (inactive) | 
39 | CCN(CC)CCOC(=O)c1ccc(NC(=O)COc2cc(=O)n(CC)c3ccccc23)cc1 | > 80 µM (inactive) | 
40 | CCn1c(=O)cc(OCC(=O)Nc2ccc(OC)c(OC)c2)c2ccccc21 | > 80 µM (inactive) | 
41 | COc1cccc(/C=C2\SC(=S)N(CCCC(=O)NC3=NCCS3)C2=O)c1 | 56.3 µM (inactive) | 
42 | CCOc1cc2nc(-c3ccc(OC)c(OC)c3)nc(N3CCOCC3)c2cc1OC |  | 5.31
43 | O=C1CCC2S/C(=C/Nc3ccc(C(F)(F)F)cc3)C(=O)N12 (stereo not drawn) |  | 6.03
44 | CC1CCN(CCCNC(=O)COc2cc(=O)n(C)c3ccccc23)CC1 | > 80 µM (inactive) | 
45 | COc1ccc(NC(=O)c2nnn(Cc3cccc(F)c3)c2N)c(OC)c1 | > 80 µM (inactive) | 
46 | Cc1nnc2c3ccccc3c(-c3ccccc3)nn12 | > 80 µM (inactive) | 
47 | COc1ccc(-c2nc(CSCC(=O)NCc3ccco3)c(C)o2)cc1 |  | 5.02
48 | CC1=CC(C)(C)Nc2ccc(OC(=O)C(Cc3ccccc3)N3C(=O)c4ccccc4C3=O)cc21 (stereo not drawn) | > 80 µM (inactive) | 
